Measured values: patent US10815222B2, “Compounds for use in the treatment of kinetoplastid infection” (C.N.C.C.S. S.c.a.r.l. COLLEZIONE NAZIONALE DEI COMPOSTI …, priority 2016, dated 2020)

Tested on: Bloodstream form of Trypanosoma brucei, strain Lister 427
Assay: Trypanosoma brucei growth inhibition assay (CellTiter-Glo, 24 h)
Assay type: cell-based
Settings: Trypanosoma brucei; T. Brucei Growth Inibition Assay, class symbols; read-out: T. Brucei GI EC50
Description: Bloodstream form of Trypanosoma brucei, strain Lister 427 (provided by Prof. Miguel Navarro, Instituto de Parasitologia y Biomedicina “Lopez-Neyra” Avda. Conocimiento S/N Parque Tecnologico Ciencias de la Salud—Spain; ref. Navarro M. and Cross G. A. M. Molecular and Cellular Biology, 1996, Vol. 16, No. 7, pp. 3615-3625) were grown in IMDM Iscove's Modified Dulbecco's Medium (SIGMA #17633) supplemented with: 3.024 g/l sodium bicarbonate, hypoxanthine 1 mM, thymidine 0.16 mM, bathocuprione sulfonic acid 0.05 mM, cysteine 1.5 mM, ß-mercaptoethanol […] and 10% foetal bovine serum (heat-inactivated at 56° C. for 30 min). Parasites were grown at 37° C. in flasks with vented caps in a 5% CO2 incubator to a maximum cell density of about 2×10^6/ml and diluted every two-three days.
The compounds of the invention were dissolved in DMSO and transferred to assay plates by acoustic droplet ejection (ATS-100, EDC Biosystems, USA) in order to obtain an appropriate concentration and to keep the concentration of DMSO below or equal to 0.25% in the final assay volume of 30 μL. 1500 parasites resuspended in 30 μL of culture medium were then transferred to each well of a 384-well plate.
After an incubation period of 24 hours at 37° C., each well is added 15 μl of CellTiter-Glo® Reagent (Promega) and incubated at room temperature. 5-10 min post incubation, the plate is read using a luminometer (ViewLux®). A known inhibitor of the growth of T. brucei was used as the reference positive control.

Structure (SMILES): COc1nc2ccccc2cc1-c1cnc([C@@H]2CN(CC3CCOC3)CCN2C(=O)Cn2c(S(C)(=O)=O)nc3ccccc32)[nH]1 (stereo partly shown)
- EC50: 0.1 to 0.5 µM

Structure (SMILES): COc1ccc2nc(C(F)(F)F)n(CC(=O)N3CC[C@H](NCc4ccn(C)n4)C[C@H]3c3ncc(-c4cc5ccccc5nc4OC)[nH]3)c2c1 [2-(6-methoxy-2-(trifluoromethyl)-1H-benzo[d]imidazol-1-yl)-1-((2S,4S)-2-(5-(2-methoxyquinolin-3-yl)-1H-imidazol-2-yl)-4-(((1-methyl-1H-pyrazol-3-yl)methyl)amino)piperidin-1-yl)ethan-1-one]
- EC50: < 0.1 µM

Structure (SMILES): COc1nc2ccccc2cc1-c1cnc([C@@H]2CN(CC(F)(F)F)CCN2C(=O)Cn2c(C(F)(F)F)nc3ccccc32)[nH]1 [(S)-1-(2-(5-(2-methoxyquinolin-3-yl)-1H-imidazol-2-yl)-4-(2,2,2-trifluoroethyl)piperazin-1-yl)-2-(2-(trifluoromethyl)-1H-benzo[d]imidazol-1-yl)ethan-1-one]
- EC50: < 0.1 µM

Structure (SMILES): COc1ccc2nc(C(F)(F)F)n(CC(=O)N3CC[C@H](NCc4ccccn4)C[C@H]3c3ncc(-c4cc5ccccc5nc4OC)[nH]3)c2c1 [2-(6-methoxy-2-(trifluoromethyl)-1H-benzo[d]imidazol-1-yl)-1-((2S,4S)-2-(5-(2-methoxyquinolin-3-yl)-1H-imidazol-2-yl)-4-((pyridin-2-ylmethyl)amino)piperidin-1-yl)ethan-1-one]
- EC50: < 0.1 µM

Structure (SMILES): COc1ccc2nc(C(F)(F)F)n(CC(=O)N3CC[C@H](N(C)C4CCOC4)C[C@H]3c3ncc(-c4cc5ccccc5nc4OC)[nH]3)c2c1 (stereo partly drawn) [2-(6-methoxy-2-(trifluoromethyl)-1H-benzo[d]imidazol-1-yl)-1-((2S,4S)-2-(5-(2-methoxyquinolin-3-yl)-1H-imidazol-2-yl)-4-(methyl(tetrahydrofuran-3-yl)amino)piperidin-1-yl)ethan-1-one]
- EC50: < 0.1 µM

Structure (SMILES): CN1CCN(C(=O)Cc2ccccc2)[C@H](c2ncc(-c3ccc4ccccc4c3)[nH]2)C1
- EC50: 1.01 to 5 µM

Structure (SMILES): COc1ccc2nc(C(F)(F)F)n(CC(=O)N3CC[C@@H](N(C)Cc4ccn(C)n4)C[C@H]3c3ncc(-c4cc5ccccc5nc4OC)[nH]3)c2c1 [2-(6-methoxy-2-(trifluoromethyl)-1H-benzo[d]imidazol-1-yl)-1-((2S,4R)-2-(5-(2-methoxyquinolin-3-yl)-1H-imidazol-2-yl)-4-(methyl((1-methyl-1H-pyrazol-3-yl)methyl)amino)piperidin-1-yl)ethan-1-one]
- EC50: < 0.1 µM

Structure (SMILES): COc1nc2ccccc2cc1-c1cnc(C2CN(S(C)(=O)=O)CCN2C(=O)Cc2ccccc2)[nH]1 (stereo not shown)
- EC50: 1.01 to 5 µM

Structure (SMILES): COc1ccc2nc(C)n(CC(=O)N3CCN(C)CCC3c3ncc(-c4cc5ccccc5nc4OC)[nH]3)c2c1 (stereo not shown)
- EC50: 1.01 to 5 µM

Structure (SMILES): COc1nc2ccccc2cc1-c1cnc([C@@H]2CN(Cc3noc(C)n3)CCN2C(=O)Cn2c(C(F)(F)F)nc3ccccc32)[nH]1 [(S)-1-(2-(5-(2-methoxyquinolin-3-yl)-1H-imidazol-2-yl)-4-((5-methyl-1,2,4-oxadiazol-3-yl)methyl)piperazin-1-yl)-2-(2-(trifluoromethyl)-1H-benzo[d]imidazol-1-yl)ethan-1-one]
- EC50: < 0.1 µM

Structure (SMILES): COc1ccc2nc(C(F)(F)F)n(CC(=O)N3CC[C@H](NC4COC4)C[C@H]3c3ncc(-c4cc5ccccc5nc4OC)[nH]3)c2c1 [2-(6-methoxy-2-(trifluoromethyl)-1H-benzo[d]imidazol-1-yl)-1-((2S,4S)-2-(5-(2-methoxyquinolin-3-yl)-1H-imidazol-2-yl)-4-(oxetan-3-ylamino)piperidin-1-yl)ethan-1-one]
- EC50: < 0.1 µM

Structure (SMILES): COc1nc2ccccc2cc1-c1cnc(C2CN(CC3CCOC3)CCN2C(=O)Cc2cnc3ccccn23)[nH]1 (stereo not shown)
- EC50: 1.01 to 5 µM

Structure (SMILES): COc1ccc2nc(C(F)(F)F)n(CC(=O)N3CCN(Cc4ncnn4C)C[C@H]3c3ncc(-c4cc5ccccc5nc4OC)[nH]3)c2c1 [(S)-2-(6-methoxy-2-(trifluoromethyl)-1H-benzo[d]imidazol-1-yl)-1-(2-(5-(2-methoxyquinolin-3-yl)-1H-imidazol-2-yl)-4-((1-methyl-1H-1,2,4-triazol-5-yl)methyl)piperazin-1-yl)ethan-1-one]
- EC50: 0.1 to 0.5 µM
